Test results published in ChEMBL document CHEMBL1201862, “PubChem BioAssay data set” (2004).
Active and inactive are the calls of the source.

What was measured:
[1] = HEp-2 cell cytotoxicity, dose response, cytotoxicity control for RSV inhibitor project, HTS (AID 2410); type: functional; details: human respiratory syncytial virus
[2] = cells
[3] = biological target: T1, Tyrosine-protein phosphatase non-receptor type 7 (Homo sapiens, UniProt P35236); type: functional
T1 sequence (P35236 whole entry): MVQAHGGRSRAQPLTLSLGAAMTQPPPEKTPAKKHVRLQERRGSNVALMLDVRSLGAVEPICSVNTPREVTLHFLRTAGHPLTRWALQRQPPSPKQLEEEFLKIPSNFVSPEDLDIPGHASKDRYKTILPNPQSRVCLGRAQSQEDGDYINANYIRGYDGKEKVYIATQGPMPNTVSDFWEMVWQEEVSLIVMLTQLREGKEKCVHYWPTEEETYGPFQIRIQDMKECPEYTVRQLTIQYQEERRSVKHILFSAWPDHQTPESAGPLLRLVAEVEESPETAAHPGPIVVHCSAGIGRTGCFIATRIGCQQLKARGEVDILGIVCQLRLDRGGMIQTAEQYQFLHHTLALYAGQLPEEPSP

[4] = biological target: Glyceraldehyde-3-phosphate dehydrogenase (Homo sapiens, UniProt P04406)
Glyceraldehyde-3-phosphate dehydrogenase, sequence (P04406 whole entry): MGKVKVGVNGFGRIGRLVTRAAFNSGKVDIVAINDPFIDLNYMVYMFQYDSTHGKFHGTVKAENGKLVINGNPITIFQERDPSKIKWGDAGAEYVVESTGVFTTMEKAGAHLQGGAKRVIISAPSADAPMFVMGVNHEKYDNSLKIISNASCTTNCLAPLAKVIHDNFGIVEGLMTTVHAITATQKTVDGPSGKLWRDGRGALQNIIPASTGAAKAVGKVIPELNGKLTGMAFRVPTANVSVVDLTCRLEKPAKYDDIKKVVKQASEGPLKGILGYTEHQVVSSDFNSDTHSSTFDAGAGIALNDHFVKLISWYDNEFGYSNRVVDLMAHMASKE

[5] = biological target: T2, Dual specificity protein phosphatase 6 (Rattus norvegicus, UniProt Q64346)
T2 sequence (Q64346 whole entry): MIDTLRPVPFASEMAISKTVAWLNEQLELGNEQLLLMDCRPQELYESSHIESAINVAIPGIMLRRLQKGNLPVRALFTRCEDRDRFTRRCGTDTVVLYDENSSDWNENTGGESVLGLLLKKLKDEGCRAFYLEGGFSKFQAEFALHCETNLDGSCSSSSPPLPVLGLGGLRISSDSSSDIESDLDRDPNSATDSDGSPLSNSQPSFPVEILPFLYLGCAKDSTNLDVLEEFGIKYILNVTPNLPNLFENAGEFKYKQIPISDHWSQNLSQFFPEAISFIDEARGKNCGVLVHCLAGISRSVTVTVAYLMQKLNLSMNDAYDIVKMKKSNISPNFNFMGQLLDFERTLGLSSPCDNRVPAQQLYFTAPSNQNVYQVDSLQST

[6] = biological target: T2, Dual specificity protein phosphatase 6; type: functional
[7] = A cytotoxicity screen of small molecule inhibitors of the PhoP region in Salmonella typhi identified in the primary screen. [Related pubchem assays: 1850, 1864, 1985 ]; type: functional
[8] = inhibitors of firefly luciferase expression or activity, dose response, H4 neuroglioma cells, luminescence (AID 1990); type: functional, cell-based
[9] = luciferase reporter signal reduction – luminescence, H4-C neuroglioblastoma cells, dose response (AID 2458); type: functional, cell-based;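 note: H4 neuroglioblastoma cells stably carrying a luciferase reporter gene fusion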
[10] = tested on: BJ; experiment: cytotoxicity toward BJ-TERT fibroblasts, dose response, cell-based, RAS-independent, luminescence (AID 1933); type: functional; details: Homo sapiens
[11] = cells; type: functional, cell-based
[12] = Luminescence Cell-Based Dose Response HTS to Identify Inhibitors of 5'UTR Stem-Loop Driven Prion Protein mRNA Translation in H4 Neuroglioblastoma Cells. [Related pubchem assays: 1827 (Project Summary), 1813 (Primary HTS)]; type: functional
[13] = inhibitors of SNCA 5'UTR-driven reporter translation, confirmation, H4 neuroglioma cells, luminescence (AID 1988); type: functional, cell-based
[14] = tested on: BJ; experiment: cells; type: functional, cell-based; details: Homo sapiens
[15] = tested on: BJ; experiment: cytotoxicity toward BJ-TERT-LT-ST fibroblasts, dose response, cell-based, RAS-independent, luminescence (AID 1935); type: functional; details: Homo sapiens;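 note: BJ fibroblasts immortalized with TERT plus LT and ST oncogenes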
[16] = cytotoxicity toward DRD oncogenic fibroblasts, dose response, cell-based, non-viral oncogenic, luminescence (AID 1934); type: functional; details: Homo sapiens
[17] = inhibitors of SNCA 5'UTR-driven translation, confirmation, luminescence, H4 neuroglioblastoma cells, dose confirmation (AID 2454); type: functional, cell-based;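 note: H4 neuroglioblastoma cells carrying an alpha-synuclein 5'UTR luciferase reporter; potency for inhibition of the luciferase signal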
[18] = biological target: T3, Aminopeptidase N (Plasmodium falciparum FcB1/Columbia, UniProt O96935); experiment: P. falciparum M1AAP inhibitors, biochemical, fluorogenic H-Leu-NHMec substrate, 1536-well (AID 1445); design: species or system Plasmodium falciparum 3D7, 3D7
T3 sequence (O96935 whole entry): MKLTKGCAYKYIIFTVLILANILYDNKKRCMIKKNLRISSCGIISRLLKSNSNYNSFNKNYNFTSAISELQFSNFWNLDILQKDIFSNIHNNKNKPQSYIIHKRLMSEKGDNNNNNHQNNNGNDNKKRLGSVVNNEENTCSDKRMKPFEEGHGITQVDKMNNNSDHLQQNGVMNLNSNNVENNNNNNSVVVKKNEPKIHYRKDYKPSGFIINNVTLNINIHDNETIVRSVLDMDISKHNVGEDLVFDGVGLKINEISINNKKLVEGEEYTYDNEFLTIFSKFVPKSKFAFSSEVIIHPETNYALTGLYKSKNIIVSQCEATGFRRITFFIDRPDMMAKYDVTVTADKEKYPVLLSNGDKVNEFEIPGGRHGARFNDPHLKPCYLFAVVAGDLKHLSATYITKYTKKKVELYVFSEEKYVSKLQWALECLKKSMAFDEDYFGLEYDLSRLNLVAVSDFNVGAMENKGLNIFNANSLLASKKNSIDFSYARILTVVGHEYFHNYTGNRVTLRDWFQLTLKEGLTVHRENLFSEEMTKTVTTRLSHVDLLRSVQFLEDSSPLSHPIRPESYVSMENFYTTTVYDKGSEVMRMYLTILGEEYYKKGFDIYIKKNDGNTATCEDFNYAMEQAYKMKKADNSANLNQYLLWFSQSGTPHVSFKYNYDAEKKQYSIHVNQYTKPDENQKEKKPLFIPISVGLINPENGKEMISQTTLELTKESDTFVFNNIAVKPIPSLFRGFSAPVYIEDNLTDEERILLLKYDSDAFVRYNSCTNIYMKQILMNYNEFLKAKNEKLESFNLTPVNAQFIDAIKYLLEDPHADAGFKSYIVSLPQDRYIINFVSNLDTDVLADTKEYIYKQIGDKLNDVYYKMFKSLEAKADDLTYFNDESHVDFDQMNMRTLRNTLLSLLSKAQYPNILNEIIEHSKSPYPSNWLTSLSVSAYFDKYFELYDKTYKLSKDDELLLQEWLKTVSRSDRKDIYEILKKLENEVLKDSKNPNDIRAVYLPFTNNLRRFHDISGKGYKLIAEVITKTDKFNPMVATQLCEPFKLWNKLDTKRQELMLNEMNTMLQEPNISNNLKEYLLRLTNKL

[19] = inhibitors of intracellular T. cruzi replication, confirmation, NIH3T3 host cells, beta-gal luminescence (AID 2044); type: functional, cell-based;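 note: intracellular parasites grown in NIH/3T3 mouse fibroblasts as host cells; luminescent beta-galactosidase reporter signal from transgenic T. cruzi replicating inside host cells; inhibitors lower the luminescence signal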
[20] = cytotoxicity toward NIH3T3 fibroblasts, dose response, counter-screen, cell-based, ATP luminescence, mouse fibroblasts (AID 2010); type: functional;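 note: cells exposed to compound for about 90 hours before reading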
[21] = biological target: T4, Ubiquitin-conjugating enzyme E2 N (Homo sapiens, UniProt P61088); type: functional;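 note: Dose-response confirmation in a TR-FRET assay detecting UBC13-driven polyubiquitin chain formation, inhibition measured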
T4 sequence (P61088 whole entry): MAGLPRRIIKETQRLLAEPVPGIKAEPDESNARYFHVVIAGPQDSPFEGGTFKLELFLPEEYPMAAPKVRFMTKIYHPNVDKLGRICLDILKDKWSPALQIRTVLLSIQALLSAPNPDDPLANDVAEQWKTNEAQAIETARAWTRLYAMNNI

[22] = biological target: DNA dC->dU-editing enzyme APOBEC-3A (Homo sapiens, UniProt P31941); experiment: APOBEC3A DNA deaminase inhibitors, dose response, biochemical (AID 504722); type: functional
DNA dC->dU-editing enzyme APOBEC-3A, sequence (P31941 whole entry): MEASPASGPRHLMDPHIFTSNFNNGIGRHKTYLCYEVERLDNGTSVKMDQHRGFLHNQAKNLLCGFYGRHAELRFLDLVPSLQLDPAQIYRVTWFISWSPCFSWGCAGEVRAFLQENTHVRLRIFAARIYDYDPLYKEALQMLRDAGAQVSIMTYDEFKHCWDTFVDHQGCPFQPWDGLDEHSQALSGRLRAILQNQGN

[23] = biological target: DNA dC->dU-editing enzyme APOBEC-3G (Homo sapiens, UniProt Q9HC16); experiment: Dose Response confirmation of small molecule APOBEC3G DNA Deaminase Inhibitors via a fluorescence-based single-stranded DNA deaminase assay. [Related pubchem assays (depositor defined):AID493012, AID493028]; type: functional
DNA dC->dU-editing enzyme APOBEC-3G, sequence (Q9HC16 whole entry): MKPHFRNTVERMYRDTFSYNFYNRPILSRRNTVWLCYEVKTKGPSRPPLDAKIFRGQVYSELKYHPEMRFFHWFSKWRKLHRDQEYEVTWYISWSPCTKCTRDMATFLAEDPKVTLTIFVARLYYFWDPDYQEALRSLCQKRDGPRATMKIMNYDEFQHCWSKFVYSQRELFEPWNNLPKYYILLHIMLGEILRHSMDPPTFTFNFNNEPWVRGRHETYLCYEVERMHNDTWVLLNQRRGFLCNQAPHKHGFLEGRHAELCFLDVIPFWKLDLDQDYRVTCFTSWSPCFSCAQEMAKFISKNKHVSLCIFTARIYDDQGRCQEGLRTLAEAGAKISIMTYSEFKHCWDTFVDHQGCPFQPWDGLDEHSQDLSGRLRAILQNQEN

[24] = biological target: T5, Rac GTPase-activating protein 1 (Homo sapiens, UniProt Q9H0H5); experiment: MgcRacGAP GTPase-activating activity inhibitors, confirmation, biochemical, ADP Hunter fluorescence, primary and confirmatory (AID 624330); type: functional
T5 sequence (Q9H0H5 whole entry): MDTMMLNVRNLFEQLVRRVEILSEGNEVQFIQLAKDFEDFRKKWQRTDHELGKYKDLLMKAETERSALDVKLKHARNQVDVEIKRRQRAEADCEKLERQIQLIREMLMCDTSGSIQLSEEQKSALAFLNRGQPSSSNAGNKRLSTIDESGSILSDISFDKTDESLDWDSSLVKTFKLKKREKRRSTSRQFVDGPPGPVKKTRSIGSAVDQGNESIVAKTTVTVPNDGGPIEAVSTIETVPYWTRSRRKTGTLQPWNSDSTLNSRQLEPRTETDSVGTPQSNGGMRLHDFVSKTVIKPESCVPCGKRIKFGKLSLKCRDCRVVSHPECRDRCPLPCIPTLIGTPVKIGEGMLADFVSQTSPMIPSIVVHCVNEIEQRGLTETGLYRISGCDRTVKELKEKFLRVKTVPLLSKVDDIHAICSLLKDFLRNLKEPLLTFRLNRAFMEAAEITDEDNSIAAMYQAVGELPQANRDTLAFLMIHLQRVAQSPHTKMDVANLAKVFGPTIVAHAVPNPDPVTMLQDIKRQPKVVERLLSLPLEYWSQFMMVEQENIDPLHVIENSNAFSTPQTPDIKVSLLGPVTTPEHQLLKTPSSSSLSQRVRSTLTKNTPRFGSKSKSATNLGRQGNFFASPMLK

Question: What does the source list for `O=[N+]([O-])c1ccccc1S(=O)(=O)Nc1cccc(-c2ccc(N3CCCC3)nn2)c1`?
Answer: CC50 [1]: 40.6 µM (active); IC50 [2]: 5.15 µM (active)

Question: With `O=C(O)C1Nc2c(cccc2N2CCOCC2)C2C=CCC12` (configuration not stated) as the compound, how does the IC50 [3] read?
Answer: The IC50 was 3.87 µM (active).

Question: What about the IC50 [4] of the same compound?
Answer: Its IC50 is > 100 µM (not active).

Question: What about the IC50 [5] of the same compound?
Answer: The IC50 was 44 µM (active).

Question: And the IC50 [6]?
Answer: Its IC50 is 60.1 µM (active).

Question: With `COc1ccc(C(=O)Nc2nc3c(s2)CCCC3)cc1S(=O)(=O)N1CCCc2ccccc21` as the compound, how does the CC50 [1] read?
Answer: Its CC50 is 3.66 µM (active).

Question: And the IC50 [2]?
Answer: Its IC50 is 5.95 µM (active).

Question: With `CN(C)c1nnnn1-c1ccc(Oc2ccccc2)cc1` as the compound, how does the EC50 [7] read?
Answer: The EC50 was > 50 µM (active).

Question: For `CN1C(=O)C2(Nc3ccccc3-c3nc4ccccc4n32)c2ccccc21` (configuration not stated), which EC50 [7] is on record?
Answer: Its EC50 is > 50 µM (active).

Question: For `Cc1ccc(NC(=O)CSc2nc3ccccc3c3nc4ccccc4n23)cc1`, which EC50 [8] is on record?
Answer: The EC50 was 0.142 µM (active).

Question: What about the EC50 [9] of the same compound?
Answer: The EC50 was 0.518 µM (active).

Question: And the EC50 [10]?
Answer: The EC50 was 1.83 µM (inconclusive).

Question: What about the EC50 [11] of the same compound?
Answer: Its EC50 is 0.963 µM (active).

Question: And the EC50 [12]?
Answer: The EC50 was < 0.1 µM (active).

Question: What about the EC50 [13] of the same compound?
Answer: Its EC50 is < 0.1 µM (active).

Question: And the EC50 [14]?
Answer: Its EC50 is 24.2 µM (inconclusive).

Question: What about the EC50 [15] of the same compound?
Answer: Its EC50 is 6.66 µM (inconclusive).

Question: What about the EC50 [16] of the same compound?
Answer: The EC50 was 0.784 µM (active).

Question: What about the EC50 [17] of the same compound?
Answer: The EC50 was 0.992 µM (active).

Question: With `C/C(Cl)=C\Cn1c(O)c(/N=N/C(=N)S)c2ccccc21` as the compound, how does the IC50 [18] read?
Answer: The IC50 was 63.5 µM (active).

Question: What about the EC50 [19] of the same compound?
Answer: Its EC50 is 1.2 µM (active).

Question: What about the EC50 [20] of the same compound?
Answer: Its EC50 is > 30 µM (not active).

Question: What about the IC50 [21] of the same compound?
Answer: Its IC50 is > 20 µM (inactive).

Question: Which results are given for `COc1ccc(/C=N/n2c(S)nnc2-c2[nH]nc3c2CCC3)cc1OC`?
Answer: IC50 [22]: > 100 µM (inactive); IC50 [23]: 2.49 µM (active); IC50 [24]: 79.9 µM (active)
